Where two headings read alike, the source gives them in different places.
Test system: TNFα
Test: IRAK4 Monocyte TNFα Cell Based Assay
Design: species or system human
Settings: human monocytes
Procedure: IRAK4 Monocyte TNFα Cell Based Assay Procedure:
The cell suspension was then plated at a density of 5,000 cells/well onto black 384 well Greiner clear bottom plates. Plates were pre-spotted with test compounds and serially diluted in DMSO where 40 nL/well were delivered using the Echo 550 acoustic liquid dispenser (Labcyte®) for a final DMSO concentration of 0.1%. Plated cells were treated with compound for 1 hour at 37° C. Cells were then stimulated with 50 pg/ml of LPS (Sigma) excluding outside columns of plate used for unstimulated cell control wells. Cells were incubated for an additional 4 hours at 37° C. Cells were then spun out of the media and 5 μl of sample were taken and analyzed for total TNFα content using the TR-FRET Human TNFα detection system (CisBio). This system utilizes two labeled antibodies (cryptate and XL665) that bind to two different epitopes of the TNFα molecule and produce FRET signal proportional to the concentration of TNFα in the sample. Detection antibodies are mixed 50:50 and 5 μL were dispensed into each well. Plates were covered with clear seals and incubated at room temp overnight. […] Percent of control was calculated as follows: % Control=100×(Ratiosample−Ratio0% stimulation)/(Ratio100% Stimulation−Ratio0% Stimulation) where unstimulated cells (0% stimulation) were the negative control and stimulated cells (100% stimulation) were used as the positive control.

[1] = second part of Table 2, compounds 33-343, unit inferred, read-out: EC50 MONO TNF HTRF
[2] = Homo sapiens, Monocyte, LPS stimulated, compounds 1-32, read-out: EC50 TNF

Row | Structure (SMILES) | EC50 [1] [nM] | further results
1 | CC(=O)N[C@@H]1CN(c2nnc(-c3cnc(-c4ccc5cc(C#N)cnn45)cc3NC(C)C)s2)CC12CC2 [Compound 324] | 19.1 | –
2 | CC(C)Nc1cc(-c2ccc3cc(C#N)cnn23)ncc1-c1nnc(-n2cccn2)s1 [Compound 325] | 1000 | –
3 | CC(=O)NC1CN(c2nnc(-c3cnc(-c4ccc5cc(C#N)cnn45)cc3NC(C)C)s2)CC1(F)F (stereo not shown) [Compound 327] | 10.2 | –
4 | CC(C)Nc1cc(-c2ccc3cc(C#N)cnn23)ncc1-c1nnc(N2CC(N3CCC(F)(F)C3)C2)s1 [Compound 328] | 80.5 | –
5 | CC(C)Nc1cc(-c2ccc3cc(C#N)cnn23)ncc1-c1nnc(N2CCC[C@H]2CO)s1 [Compound 329] | 54.2 | –
6 | CC(=O)N[C@@H]1CCN(c2nnc(-c3cnc(-c4ccc5cc(C#N)cnn45)cc3NC(C)C)s2)C1 [Compound 330] | 47.1 | –
7 | CC(=O)N[C@H]1CCN(c2nnc(-c3cnc(-c4ccc5cc(C#N)cnn45)cc3NC(C)C)s2)C1 [Compound 331] | 81.4 | –
8 | CC(C)Nc1cc(-c2ccc3cc(C#N)cnn23)ncc1-c1nnc(C2CCC(C#N)CC2)s1 (stereo not shown) [Compound 333] | 1000 | –
9 | CC(=O)NC12CCC(c3nnc(-c4cnc(-c5ccc6cc(C#N)cnn56)cc4NC4COC4)s3)(C1)C2 [Compound 334] | 98.9 | –
10 | CC(C)(O)C(=O)NC12CCC(c3nnc(-c4cnc(-c5ccc6cc(C#N)cnn56)cc4NC4COC4)s3)(C1)C2 [Compound 335] | 48.9 | –
11 | CS(C)(=O)=NCC(=O)NC12CCC(c3nnc(-c4cnc(-c5ccc6cc(C#N)cnn56)cc4NC4CCOCC4)s3)(CC1)CC2 [Compound 338] | 2.7 | –
12 | CC(C)Nc1cc(-c2ccc3cc(C#N)cnn23)ncc1-c1nnc([C@H]2CC[C@H](NC(=O)CN=S(C)(C)=O)CC2)s1 [Compound 339] | 9.1 | –
13 | CC(C)Nc1cc(-c2ccc3cc(C#N)cnn23)ncc1-c1nnc([C@H]2CC[C@H](NC(=O)C3CCN(C)CC3)CC2)s1 [Compound 340] | 9.1 | –
14 | CC(C)Nc1cc(-c2ccc3cc(C#N)cnn23)ncc1-c1nnc(C2CCC(NC(=O)C(C)(C)C(=O)O)CC2)s1 (stereo not shown) [Compound 341] | 72.4 | –
15 | CC(=O)NC1CCN(C(=O)c2nnc(-c3cnc(-c4ccc5cc(C#N)cnn45)cc3NC(C)C)s2)CC1 [Example 8, N-(1-(5-(6-(3-cyanopyrrolo[1,2-b]pyridazin-7-yl)-4-(isopropylamino)pyridin-3-yl)-1,3,4-thiadiazole-2-carbonyl)piperidin-4-yl)acetamide] | – | EC50 [2]: 7540 nM
16 | CC(C)Nc1cc(-c2ccc3cc(C#N)cnn23)ncc1-c1nnc(C(=O)N2CCCC2)s1 [Example 9, 7-(4-(isopropylamino)-5-(5-(pyrrolidine-1-carbonyl)-1,3,4-thiadiazol-2-yl)pyridin-2-yl)pyrrolo[1,2-b]pyridazine-3-carbonitrile] | – | EC50 [2]: 2130 nM
17 | CC(=O)N[C@H]1CC[C@H](c2nnc(-c3cnc(-c4ccc5cc(C#N)cnn45)cc3NC(C)C)s2)CC1 [Example 24, N-((1r,4r)-4-(5-(6-(3-cyanopyrrolo[1,2-b]pyridazin-7-yl)-4-(isopropylamino)pyridin-3-yl)-1,3,4-thiadiazol-2-yl)cyclohexyl)acetamide] | – | EC50 [2]: 14 nM
18 | CC(C)Nc1cc(-c2ccc3cc(C#N)cnn23)ncc1-c1nnc(N2CCCC2)s1 [Example 29, 7-(4-(isopropylamino)-5-(5-(pyrrolidin-1-yl)-1,3,4-thiadiazol-2-yl)pyridin-2-yl)pyrrolo[1,2-b]pyridazine-3-carbonitrile] | – | EC50 [2]: 4180 nM
19 | CC(C)Nc1cc(-c2ccc3cc(C#N)cnn23)ncc1-c1nnc(C2CCOCC2)s1 [Example 32] | – | EC50 (LPS stimulated, compounds 1-32, read-out: EC50 TNF): 211 nM

Row | Structure (SMILES) | EC50 [1] [nM] | further results
20 | COC(=O)N[C@H]1CC[C@H](Nc2cc(-c3ccc4cc(C#N)cnn34)ncc2-c2nnc([C@H]3CC[C@H](NC(C)=O)CC3)s2)CC1 [Example 34, methyl ((1R,4r)-4-((5-(5-((1r,4R)-4-acetamidocyclohexyl)-1,3,4-thiadiazol-2-yl)-2-(3-cyanopyrrolo[1,2-b]pyridazin-7-yl)pyridin-4-yl)amino)cyclohexyl)carbamate] | 4.9 | –
21 | CC(=O)N[C@@H]1[C@@H]2CC[C@H]1CN(c1nnc(-c3cnc(-c4ccc5cc(C#N)cnn45)cc3NC(C)C)s1)C2 [Example 38] | 3.5 | –
22 | CC(=O)N[C@H]1[C@@H]2CC[C@H]1CN(c1nnc(-c3cnc(-c4ccc5cc(C#N)cnn45)cc3NC(C)C)s1)C2 [Example 39] | 10.4 | –
23 | CC(=O)NC[C@H]1CCCN1C(=O)c1nnc(-c2cnc(-c3ccc4cc(C#N)cnn34)cc2NC(C)C)s1 [Example 42] | 35.7 | –
24 | COC(=O)N[C@H]1CCN(C(=O)c2nnc(-c3cnc(-c4ccc5cc(C#N)cnn45)cc3NC(C)C)s2)C1 [Example 43, methyl (S)-(1-(5-(6-(3-cyanopyrrolo[1,2-b]pyridazin-7-yl)-4-(isopropylamino)pyridin-3-yl)-1,3,4-thiadiazole-2-carbonyl)pyrrolidin-3-yl)carbarnate] | 21.9 | –
25 | CC(=O)N[C@H]1[C@@H]2C[C@H]1CN(c1nnc(-c3cnc(-c4ccc5cc(C#N)cnn45)cc3NC(C)C)s1)C2 [Example 45] | 11.8 | –
26 | CC(C)Nc1cc(-c2ccc3cc(C#N)cnn23)ncc1-c1nnc(C(=O)N2CC[C@@H](NC(=O)C3CC3)C2)s1 [Example 47] | 5680 | –
27 | COC(=O)NC[C@H]1C[C@H](Nc2cc(-c3ccc4cc(C#N)cnn34)ncc2-c2nnc(N3CCN4CCOC[C@H]4C3)s2)C1 [Example 51, methyl (((1R,3r)-3-((2-(3-cyanopyrrolo[1,2-b]pyridazin-7-yl)-5-(5-((R)-hexahydropyrazino[2,1-c][1,4]oxazin-8(1H)-yl)-1,3,4-thiadiazol-2-yl)pyridin-4-yl)amino)cyclobutyl)methyl)carbamate] | 4.7 | –
28 | COC(=O)NC[C@H]1C[C@H](Nc2cc(-c3ccc4cc(C#N)cnn34)ncc2-c2nnc(N3C[C@H]4CC[C@@H](C3)[C@@H]4NC(C)=O)s2)C1 [Example 52] | 4.1 | –
29 | CC(=O)N[C@@H]1[C@@H]2CC[C@H]1CN(c1nnc(-c3cnc(-c4ccc5cc(C#N)cnn45)cc3N[C@H](C)C#N)s1)C2 [Example 53, N-((1R,5S,8S)-3-(5-(4-(((R)-1-cyanoethyl)amino)-6-(3-cyanopyrrolo[1,2-b]pyridazin-7-yl)pyridin-3-yl)-1,3,4-thiadiazol-2-yl)-3-azabicyclo[3.2.1]octan-8-yl)acetamide] | 0.6 | –
30 | COC(=O)N[C@H]1CC[C@H](Nc2cc(-c3ccc4cc(C#N)cnn34)ncc2-c2nnc(N3C[C@H]4CC[C@@H](C3)[C@@H]4NC(C)=O)s2)CC1 [Example 54, methyl ((1R,4r)-4-((5-(5-((1R,5S,8S)-8-acetamido-3-azabicyclo[3.2.1]octan-3-yl)-1,3,4-thiadiazol-2-yl)-2-(3-cyanopyrrolo[1,2-b]pyridazin-7-yl)pyridin-4-yl)amino)cyclohexyl)carbamate] | 2.4 | –
31 | CC(=O)N[C@H]1C[C@H]2CC[C@@H](C1)N2c1nnc(-c2cnc(-c3ccc4cc(C#N)cnn34)cc2NC(C)C)s1 [Example 55, N-((1R,3r,5S)-8-(5-(6-(3-cyanopyrrolo[1,2-b]pyridazin-7-yl)-4-(isopropylamino)pyridin-3-yl)-1,3,4-thiadiazol-2-yl)-8-azabicyclo[3.2.1]octan-3-yl)acetamide] | 115 | –
32 | CC(=O)N[C@@H]1C[C@H]2CC[C@@H](C1)N2c1nnc(-c2cnc(-c3ccc4cc(C#N)cnn34)cc2NC(C)C)s1 [Example 56, N-((1R,3s,5S)-8-(5-(6-(3-cyanopyrrolo[1,2-b]pyridazin-7-yl)-4-(isopropylamino)pyridin-3-yl)-1,3,4-thiadiazol-2-yl)-8-azabicyclo[3.2.1]octan-3-yl)acetamide] | 8.3 | –
33 | CC(C)Nc1cc(-c2ccc3cc(C#N)cnn23)ncc1-c1nnc(N2C[C@H]3CC[C@@H](C2)[C@@H]3NC(=O)N2CCOCC2)s1 [Example 57, N-((1R,5S,8s)-3-(5-(6-(3-cyanopyrrolo[1,2-b]pyridazin-7-yl)-4-(isopropylamino)pyridin-3-yl)-1,3,4-thiadiazol-2-yl)-3-azabicyclo[3.2.1]octan-8-yl)morpholine-4-carboxamide] | 6.8 | –
34 | CC(C)Nc1cc(-c2ccc3cc(C#N)cnn23)ncc1-c1nnc(N2C[C@H]3CC[C@@H](C2)[C@@H]3NS(C)(=O)=O)s1 [Example 58, N-((1R,5S,8s)-3-(5-(6-(3-cyanopyrrolo[1,2-b]pyridazin-7-yl)-4-(isopropylamino)pyridin-3-yl)-1,3,4-thiadiazol-2-yl)-3-azabicyclo[3.2.1]octan-8-yl)methanesulfonamide] | 9.3 | –
35 | COC(=O)N[C@@H]1[C@@H]2CC[C@H]1CN(c1nnc(-c3cnc(-c4ccc5cc(C#N)cnn45)cc3NC(C)C)s1)C2 [Example 59, methyl ((1R,5S,8s)-3-(5-(6-(3-cyanopyrrolo[1,2-b]pyridazin-7-yl)-4-(isopropylamino)pyridin-3-yl)-1,3,4-thiadiazol-2-yl)-3-azabicyclo[3.2.1]octan-8-yl)carbamate] | 14.7 | –
36 | CC(C)Nc1cc(-c2ccc3cc(C#N)cnn23)ncc1-c1nnc(N2C[C@H]3CC[C@@H](C2)[C@@H]3N)s1 [Example 60, 7-(5-(5-((1R,5S,8s)-8-amino-3-azabicyclo[3.2.1]octan-3-yl)-1,3,4-thiadiazol-2-yl)-4-(isopropylamino)pyridin-2-yl)pyrrolo[1,2-b]pyridazine-3-carbonitrile] | 8.5 | –
37 | CC(=O)N[C@@H]1CCN(c2nnc(-c3cnc(-c4ccc5cc(C#N)cnn45)cc3NC(C)C)s2)C[C@@H]1O [Example 63] | 13.8 | –

From patent US11046686B2, “Thiadiazole IRAK4 compounds” (Gilead Sciences, Inc., priority 2018, dated 2021)
